First: CC(C)(C)C(=O)C(=[N+]=[N-])S(=O)(=O)C1CCCCC1
Second: CS(=O)(=O)Nc1cc(C(O)CNCCCCCCOCCC2CCCCC2)ccc1O (centres undefined)
The melting point of the first is lower: 80.5 to 82 °C for the first, 99 to 101 °C for the second.

First: CCCCOc1c(CNC(=O)OC(C)(C)C)n(CC(C)C)c(=O)c2ccc(CO)cc12
Second: COc1ccc(OC(C)(C)C(=O)O)cc1OCCCc1cn(-c2ccc(C(F)(F)F)cn2)nc1C(C)C
The melting point of the first is higher: 153 to 154 °C for the first, 106 to 107 °C for the second.

Compared with `C[C@@H]1CN(c2c(C=O)cc(Br)c(F)c2F)C[C@H](C)O1`, `Cc1ncn(-c2ccc(N)cc2F)n1` is higher in melting point: 88.1 to 92 °C for the first, 122 to 125 °C for the second.

Compared with `Cc1n[nH]cc1-c1cccc2c1nnn2-c1ccnc(NC2CCC(C(=O)N3CCC(O)CC3)CC2)n1` (centres undefined), `COCC1=NC(NC(=O)Nc2cccc(C)c2)C(=O)N(CC(=O)N2CC3CCC(CC3)C2)c2c(C)cccc21` (centres undefined) is lower in melting point: 190 to 195 °C for the first, 178 to 182 °C for the second.

First: Cc1cc(C(C)(C)C)c(O)c(S(=O)(=O)Nc2ccc(C#N)c(C(F)(F)F)c2)c1
Second: Cc1cc(C)cc(S(=O)(=O)c2cccc(F)c2C#N)c1
The melting point of the first is lower: 159 to 162 °C for the first, 167 to 168 °C for the second.

First: CC1(C)CC(=O)C(C(=O)Nc2cccc(C(F)(F)F)c2)C(=O)O1 (centres undefined)
Second: O=C(O)c1cnn(-c2cccc(C(F)(F)F)c2)c1
The melting point of the first is higher: 150 °C for the first, 145 to 148 °C for the second.

Compared with `CCOC(=O)c1[nH]cc(C)c1-c1ccccc1`, `CCOC(=O)C(=O)N(O)Cc1ccc2c(c1)Cc1ccccc1-2` is higher in melting point: 62 to 64 °C for the first, 130 to 131 °C for the second.

First: OC(c1ccc(F)cc1)(c1ccc(F)cc1)C1CCNCC1
Second: Nc1ccc(C(=O)NC2CCN(c3ccccc3)C2)cc1 (centres undefined)
The melting point of the first is lower: 160 °C for the first, 213 to 216 °C for the second.

Compared with `CN1CCN(N=C2CC(c3ccc(C(F)(F)F)cc3)Cc3[nH]c4ccc(Cl)cc4c(=O)c32)CC1` (centres undefined), `Cc1nc2cc(NC(=O)Nc3ccc(C(F)(F)F)cc3)ccc2o1` is lower in melting point: 330 °C for the first, 240 to 243 °C for the second.

First: COc1ccc2c(=O)c3c(OC)cccc3oc2c1OC
Second: COC(=O)c1c(OC)cc2oc(C)cc(=O)c2c1OC
The melting point of the first is lower: 145 to 146 °C for the first, 188 °C for the second.

Compared with `COC(=O)c1cn2c3c(c(OS(C)(=O)=O)c(F)cc3c1=O)CCN2C`, `CCON=C1CN(c2nc3c(cc2F)c(=O)c(C(=O)O)cn3C2CC2)CC12CN(C(=O)OC(C)(C)C)C2` is higher in melting point: 247 to 250 °C for the first, 261 to 262 °C for the second.

First: Cc1cccc(-c2ccc(=O)[nH]n2)c1
Second: CSc1ccc(-c2ccc(=O)[nH]c2C)cc1
The melting point of the first is lower: 202 to 205 °C for the first, 211 to 212 °C for the second.

First: COC(=O)Cc1ccc(CNC(=O)C2Cc3ccccc3N2S(=O)(=O)c2ccc(-c3ccc(F)cc3F)cc2)cc1 (centres undefined)
Second: O=C(NO)c1ccc(CNC(=O)c2[nH]c(-c3ccccc3)cc2-c2ccc(Br)cc2)cc1
The melting point of the first is lower: 68 to 72 °C for the first, 174 to 176 °C for the second.

First: Cc1ccc2nc(/C=C/c3ccccc3)n(-c3ccccn3)c2c1
Second: Fc1ccccc1C1=NCc2cnc(-c3ccccc3)n2-c2ccc(Cl)cc21
The melting point of the first is lower: 164 to 165 °C for the first, 241 to 243 °C for the second.

First: CC(=O)c1ccc2c(c1)C(=O)c1ccccc1CN2Cc1ccccc1
Second: CC(N)Cn1cc(-c2ccccc2)c2ccccc2c1=O (centres undefined)
The melting point of the first is higher: 163 to 165 °C for the first, 104 °C for the second.

First: COCCN1C(=O)CCC(C)(C)c2ccc(Nc3ncc(Cl)c(Nc4c(F)cccc4OCC#N)n3)cc21
Second: CCOc1cc2ncc(C#N)c(Nc3ccc(OCc4cccc(F)c4)c(Cl)c3)c2cc1NC(=O)/C=C/CN(C)C
The melting point of the first is higher: 235 to 238 °C for the first, 165 to 167 °C for the second.

Compared with `O=C(CC(=O)C(F)F)c1ccc(Br)s1`, `NC1=C(C(=O)c2ccc(Br)s2)C2=C(CCCC2)S1=O` (centres undefined) is higher in melting point: 83.5 to 85 °C for the first, 160 to 163 °C for the second.

Compared with `CCCOc1ccc(S(=O)(=O)NCCc2c[nH]cn2)cc1-c1nc2cc(Cl)c([N+](=O)[O-])cc2c(=O)[nH]1`, `[N-]=[N+]=Nc1ccc(S(=O)(=O)NCCc2ccc(CCO)cc2)cc1` is lower in melting point: 140 to 144 °C for the first, 80 to 82 °C for the second.

First: CC1(CC2CCCC2)Cc2cc(O)c(Cl)c(Cl)c2C1=O (centres undefined)
Second: CCC1CC(C)C(=O)C=C1c1ccc(OCC(=O)O)c(Cl)c1Cl (centres undefined)
The melting point of the first is higher: 188 to 190 °C for the first, 99 to 100 °C for the second.

First: Cc1c(C#N)sc2nc(-c3ccncc3)nc(N3CCOCC3)c12
Second: FC(F)c1nc2ccccc2n1-c1nc(Nc2ccncn2)nc(N2CCOCC2)n1
The melting point of the first is higher: greater than 250 °C for the first, 233 to 235 °C for the second.

First: O=C(CCl)c1cccn1Cc1ccccc1[N+](=O)[O-]
Second: O=C(O)c1cc([N+](=O)[O-])ccc1C(=O)c1ccccc1
The melting point of the first is lower: 112 to 114 °C for the first, 176 to 179 °C for the second.

First: COc1cc([N+](=O)[O-])c(N)cc1OC(F)F
Second: CC(C)(C)Cn1c(=O)c(=O)[nH]c2cc([N+](=O)[O-])c(N)cc21
The melting point of the first is lower: 144 to 145 °C for the first, greater than 300 °C for the second.

Compared with `O=C1N(Cc2ccccn2)c2ccccc2C12COc1c2ccc2c1OCCO2` (centres undefined), `O=C1N(CCCC2CC2)c2ccccc2C12COc1cc3c(cc12)OCO3` (centres undefined) is lower in melting point: 205 to 206 °C for the first, 111 to 113 °C for the second.

Compared with `CCOc1ccc2[nH]c(=O)n(CCN(C(C)C)C(C)C)c2c1`, `CCOc1cc(N=Nc2ccc(OC)cc2)c(O)c(C(C)(C)C)c1` is higher in melting point: 89 °C for the first, 105 to 108 °C for the second.

First: CNC(=O)N1N=C(c2ccc(N)cc2)c2cc(OC)ccc2CC1C (centres undefined)
Second: COc1ccc2c(c1)COc1c-2ccc2cc(OC)ccc12
The melting point of the first is higher: 190 to 191 °C for the first, 175 to 178 °C for the second.

Compared with `CCOC(=O)Cc1ccc(C(=O)c2ccc([N+](=O)[O-])cc2)n1C`, `CCOC(=O)c1ncc2[nH]c3ccc([N+](=O)[O-])cc3c2c1C` is higher in melting point: 103 to 106 °C for the first, 272 to 275 °C for the second.

First: COc1ccccc1CN[C@H]1CCCN[C@H]1C1CCCCC1 (relative stereo)
Second: CC(=O)OC1CCC(c2ccccc2)CC1 (centres undefined)
The melting point of the first is higher: greater than 225 °C for the first, 43 to 45 °C for the second.

First: O=C(Nc1cccc(Cl)c1)ONC1C=NC(c2ccccc2Cl)=c2cc(Cl)ccc2=N1 (centres undefined)
Second: CCOc1ncc(NC(=O)Nc2c(CC)cccc2CC)c(-c2ccccc2Cl)n1
The melting point of the first is lower: 125 to 137 °C for the first, 190 to 191 °C for the second.

Compared with `CCc1cccc(CC)c1NC(=O)NC(c1ccccc1)c1ccccc1`, `Brc1ccc(N=C(c2ccccc2)c2ccccc2)cc1` is lower in melting point: 238 to 240 °C for the first, 82 to 83 °C for the second.

Compared with `CC(C)(C)c1ccc(OCCCCCCN2CCN(c3nccs3)CC2)cc1`, `CN1CCN(c2nc(-c3ccccc3)c(-c3ccnc(S(C)=O)n3)s2)CC1` (centres undefined) is higher in melting point: 30 to 32 °C for the first, 166 to 169 °C for the second.

First: COc1ccc2c(c1)C(C)(C)[C@H]1CCCN(C(C)=O)[C@H]1C2 (relative stereo)
Second: COC(=O)CN(C=O)C1c2ccccc2CCC1(C)C (centres undefined)
The melting point of the first is higher: 81 to 85 °C for the first, 74 to 75 °C for the second.

First: CCCCCCCCCCCCCCCCCCOCC(CO)OC(=O)N1CCOCC1 (centres undefined)
Second: Cc1cc(C=O)c(OCCCCCCCCc2ccccc2)c(C=O)c1
The melting point of the first is lower: 48 to 49 °C for the first, 59 °C for the second.

First: CCCc1c(OCCCSc2ccc(C(=O)CCC(=O)O)cc2F)ccc(C(C)=O)c1O
Second: CCOc1cc(OC2CCN(C)CC2)c(F)c([C@H](Nc2ccc(C(=N)N)cc2)C(=O)O)c1
The melting point of the first is lower: 115 to 116 °C for the first, 267 °C for the second.

First: COC(=O)C(=NO)c1nc2c(C)c(Cl)ccc2oc1=O
Second: CCn1cc(C(=O)O)c(=O)c2ccc(F)c(C)c21
The melting point of the first is lower: 190 to 191 °C for the first, 245 to 246 °C for the second.

First: Cc1cccc(NC(=O)NC2CC(c3ccccc3F)c3ccccc3N(CC(=O)NC(C)(C)C)C2=O)c1 (centres undefined)
Second: Cc1ccc(-c2[nH]c(-c3ccccc3)nc2C(=O)Nc2nc3ccccc3s2)cc1
The melting point of the first is higher: 285 to 300 °C for the first, 269 to 270 °C for the second.

First: CCOC(=O)CC1CC2C(CCC3(C)C(=O)CCC23)c2ccc(O)cc21 (centres undefined)
Second: CCOC(=O)c1ccc(/C=C(\C)c2ccc3c(c2)C(C)(C)CCO3)cc1
The melting point of the first is higher: 138 °C for the first, 86 to 87 °C for the second.

First: Cc1cc(C(C)(C)C)cc(C)c1S(F)(F)F
Second: COc1cc(CCc2c(CO)ccc(OC)c2OC)cc(OC)c1
The melting point of the first is lower: 59.1 °C for the first, 126 to 128 °C for the second.

First: COc1ccc(C[C@@H](C(=O)[C@H](Cc2ccc(OC)c(OC)c2)N2C(=O)c3ccccc3C2=O)N2C(=O)c3ccccc3C2=O)cc1OC
Second: COc1ccc2cc(-c3nn(C(C)c4oc5ccccc5c(=O)c4-c4cccc(F)c4)c4ncnc(N)c34)ccc2c1 (centres undefined)
The melting point of the first is lower: 126 to 128 °C for the first, 285 to 287 °C for the second.

Compared with `CCCCCCN1c2ccc(OC)cc2C(C)(C)C12C=Cc1cc([N+](=O)[O-])cc(OC)c1S2` (centres undefined), `COc1ccc2c(c1)c(CC(O)(P(=O)(O)O)P(=O)(O)O)c(C)n2C(=O)c1ccc(Cl)cc1` is higher in melting point: 97 to 98 °C for the first, 202 °C for the second.

First: c1ccc(OCc2nnn[nH]2)cc1
Second: O=C(O)C=CC=CCSc1ccccc1
The melting point of the first is higher: 128 to 131 °C for the first, 108 to 110 °C for the second.

First: CN(C)c1cccc2c(S(=O)(=O)Nc3ncc(Br)nc3Br)cccc12
Second: COc1cc(Cl)nnc1NS(=O)(=O)c1ccc(Cl)s1
The melting point of the first is higher: 178 °C for the first, 120 to 122 °C for the second.

First: CC(C)n1nc(-c2cnc(N)nc2-c2c(F)cccc2F)ccc1=O
Second: CCN(CC)C(=O)OC12Oc3cc(C(C)C)ccc3C1(O)C(=O)c1ccccc12 (centres undefined)
The melting point of the first is higher: 244 °C for the first, 127 to 130 °C for the second.

Compared with `Cc1oc(-c2ccccc2)nc1CCOc1ccc(CCC#N)cc1`, `CCOC(=O)c1cc(=O)c2c(OCC(O)COc3ccc(CC)cc3)cccc2o1` (centres undefined) is lower in melting point: 109 to 110 °C for the first, 80 to 85 °C for the second.

First: CCC1(O)CC(=O)OCc2c1cc1n(c2=O)Cc2c-1nc1ccc(Cl)cc1c2-c1ccccc1F (centres undefined)
Second: NC(=O)CNC(=O)c1cccc(-c2cccc3c(F)c(Cc4cccc(C(F)(F)F)c4)sc23)c1
The melting point of the first is higher: greater than 250 °C for the first, 127 to 128 °C for the second.

First: COc1ccc(OCCOc2ccc(C(=O)C(=O)O)cc2)cc1
Second: COc1cc(C(=O)O)ccc1-c1ccncc1
The melting point of the first is lower: 138 to 139 °C for the first, 239 to 241 °C for the second.

First: N#Cc1c(NC(=O)CO)cccc1NC(=O)CO
Second: CC(=O)c1cn(C)cc(-c2cccc(Br)c2)c1=O
The melting point of the first is lower: 188 to 189 °C for the first, 192 to 194 °C for the second.

First: OCc1ccc(CCc2ccncc2)cc1
Second: Cn1ccc(-c2ccc(C(=O)O)c(Cl)c2)n1
The melting point of the first is lower: 163 to 166 °C for the first, 232 to 233 °C for the second.

First: CN=C(NC)Nc1nc(CSCCNC2=NS(=O)(=O)N=C2NC)cs1
Second: CC(C)(N)CNC(CO)(CO)CO
The melting point of the first is higher: 132 to 137 °C for the first, 73 to 75 °C for the second.

Compared with `FC1(N2CCOCC2)C=C(Cl)C=CC1NC(=S)C1C=CCCC1` (centres undefined), `O=c1c(Cl)coc2cc(OCCCCl)ccc12` is higher in melting point: 86 to 88 °C for the first, 101 to 103 °C for the second.

`CC1(C)OC(=C(C#N)C#N)C(C#N)=C1c1ccc(C#C[Si](C)(C)C)cc1` gave a melting point of 201 °C.

Reference: a melting point compilation (Tetko et al.; mined from patent text by program, amines drawn as free bases though some values may be those of a salt)
